Data reported in patent US20160128951A1, “PHARMACEUTICAL COMPOSITIONS OF FINGOLIMOD” (AIZANT DRUG RESEARCH SOLUTIONS PVT LTD, priority 2013, published 2016).

Experiment: Stability study (impurities) at 40° C./75% RH for one week
Assay type: physicochemical
Method: Stability study was conducted for active ingredient, compositions of the present invention and comparative composition. The study was conducted at 40° C./75% RH for one week.

[1] = After one week at 40° C./75% RH, Sample (API)

CCCCCCCCc1ccc(CCC(N)(CO)CO)cc1.Cl [API, 2-amino-2-[2-(4-octylphenyl)ethyl]-propane-1,3-diol]
0.05 % w/w: Impurity 1 [1] | Total Impurities [1] | Impurity 1 (Initial, Sample) | Total Impurities (Initial, Sample)
